From ChEMBL document CHEMBL4371021, “BH3 mimetics derived from Bim-BH3 domain core region show PTP1B inhibitory activity” (Bioorg Med Chem Lett, 2019)
Each block holds one compound with its values, some of them ahead of it. Active and inactive are the calls of the source. The rule behind the calls is not given here. Residues, ends and D or L forms follow the SMILES beside them.

Legend:
HepG2 [1] = test: Induction of insulin-stimulated 2-NBDG uptake in palmitic acid-induced insulin resistant human HepG2 cells at 1 umol/L preincubated for 24 hrs followed by insulin stimulation and measured after 30 mins by fluorescence assay; type: functional, cell-based
[2] = target: T1, Tyrosine-protein phosphatase non-receptor type 1 (Homo sapiens, UniProt P18031); test: Inhibition of recombinant human N-terminal poly histidine-tagged PTP1B (Glu2 to Asn321 residues) expressed in Escherichia coli using pNPP as substrate measured for 4 mins
T1 sequence (P18031 whole entry): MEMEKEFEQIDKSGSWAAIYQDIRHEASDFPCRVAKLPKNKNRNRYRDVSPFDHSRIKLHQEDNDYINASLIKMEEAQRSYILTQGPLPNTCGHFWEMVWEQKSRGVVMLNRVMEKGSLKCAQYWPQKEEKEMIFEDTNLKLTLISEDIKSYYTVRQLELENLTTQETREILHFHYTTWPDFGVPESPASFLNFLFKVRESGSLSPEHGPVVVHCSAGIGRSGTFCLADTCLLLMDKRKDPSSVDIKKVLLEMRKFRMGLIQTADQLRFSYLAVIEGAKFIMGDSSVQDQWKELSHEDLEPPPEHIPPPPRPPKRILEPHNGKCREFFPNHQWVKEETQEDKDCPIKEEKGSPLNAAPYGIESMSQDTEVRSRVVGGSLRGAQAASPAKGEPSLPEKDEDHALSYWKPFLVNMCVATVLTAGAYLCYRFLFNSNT

HepG2 [3] = test: Cytotoxicity against human HepG2 cells assessed as effect on cell viability at 0.1 to 10 umol/L after 24 hrs by MTT assay; type: cell-based; details: hepg2, 24 h
[4] = target: T2, Tyrosine-protein phosphatase non-receptor type 1 (Homo sapiens) (UniProt P18031); test: Inhibition of recombinant human N-terminal poly histidine-tagged PTP1B (Glu2 to Asn321 residues) expressed in Escherichia coli at 20 umol/L using pNPP as substrate measured for 4 mins relative to control
T2 sequence (whole entry): T1 sequence (P18031 whole entry)

[5] = target: Receptor-type tyrosine-protein phosphatase F (Homo sapiens) (UniProt P10586); test: Inhibition of LAR (unknown origin) at 0.5 umol/L using OMFP as substrate measured for 4 mins relative to control
Chain of Receptor-type tyrosine-protein phosphatase F (Homo sapiens) (P10586 whole entry, the tested form may be a part): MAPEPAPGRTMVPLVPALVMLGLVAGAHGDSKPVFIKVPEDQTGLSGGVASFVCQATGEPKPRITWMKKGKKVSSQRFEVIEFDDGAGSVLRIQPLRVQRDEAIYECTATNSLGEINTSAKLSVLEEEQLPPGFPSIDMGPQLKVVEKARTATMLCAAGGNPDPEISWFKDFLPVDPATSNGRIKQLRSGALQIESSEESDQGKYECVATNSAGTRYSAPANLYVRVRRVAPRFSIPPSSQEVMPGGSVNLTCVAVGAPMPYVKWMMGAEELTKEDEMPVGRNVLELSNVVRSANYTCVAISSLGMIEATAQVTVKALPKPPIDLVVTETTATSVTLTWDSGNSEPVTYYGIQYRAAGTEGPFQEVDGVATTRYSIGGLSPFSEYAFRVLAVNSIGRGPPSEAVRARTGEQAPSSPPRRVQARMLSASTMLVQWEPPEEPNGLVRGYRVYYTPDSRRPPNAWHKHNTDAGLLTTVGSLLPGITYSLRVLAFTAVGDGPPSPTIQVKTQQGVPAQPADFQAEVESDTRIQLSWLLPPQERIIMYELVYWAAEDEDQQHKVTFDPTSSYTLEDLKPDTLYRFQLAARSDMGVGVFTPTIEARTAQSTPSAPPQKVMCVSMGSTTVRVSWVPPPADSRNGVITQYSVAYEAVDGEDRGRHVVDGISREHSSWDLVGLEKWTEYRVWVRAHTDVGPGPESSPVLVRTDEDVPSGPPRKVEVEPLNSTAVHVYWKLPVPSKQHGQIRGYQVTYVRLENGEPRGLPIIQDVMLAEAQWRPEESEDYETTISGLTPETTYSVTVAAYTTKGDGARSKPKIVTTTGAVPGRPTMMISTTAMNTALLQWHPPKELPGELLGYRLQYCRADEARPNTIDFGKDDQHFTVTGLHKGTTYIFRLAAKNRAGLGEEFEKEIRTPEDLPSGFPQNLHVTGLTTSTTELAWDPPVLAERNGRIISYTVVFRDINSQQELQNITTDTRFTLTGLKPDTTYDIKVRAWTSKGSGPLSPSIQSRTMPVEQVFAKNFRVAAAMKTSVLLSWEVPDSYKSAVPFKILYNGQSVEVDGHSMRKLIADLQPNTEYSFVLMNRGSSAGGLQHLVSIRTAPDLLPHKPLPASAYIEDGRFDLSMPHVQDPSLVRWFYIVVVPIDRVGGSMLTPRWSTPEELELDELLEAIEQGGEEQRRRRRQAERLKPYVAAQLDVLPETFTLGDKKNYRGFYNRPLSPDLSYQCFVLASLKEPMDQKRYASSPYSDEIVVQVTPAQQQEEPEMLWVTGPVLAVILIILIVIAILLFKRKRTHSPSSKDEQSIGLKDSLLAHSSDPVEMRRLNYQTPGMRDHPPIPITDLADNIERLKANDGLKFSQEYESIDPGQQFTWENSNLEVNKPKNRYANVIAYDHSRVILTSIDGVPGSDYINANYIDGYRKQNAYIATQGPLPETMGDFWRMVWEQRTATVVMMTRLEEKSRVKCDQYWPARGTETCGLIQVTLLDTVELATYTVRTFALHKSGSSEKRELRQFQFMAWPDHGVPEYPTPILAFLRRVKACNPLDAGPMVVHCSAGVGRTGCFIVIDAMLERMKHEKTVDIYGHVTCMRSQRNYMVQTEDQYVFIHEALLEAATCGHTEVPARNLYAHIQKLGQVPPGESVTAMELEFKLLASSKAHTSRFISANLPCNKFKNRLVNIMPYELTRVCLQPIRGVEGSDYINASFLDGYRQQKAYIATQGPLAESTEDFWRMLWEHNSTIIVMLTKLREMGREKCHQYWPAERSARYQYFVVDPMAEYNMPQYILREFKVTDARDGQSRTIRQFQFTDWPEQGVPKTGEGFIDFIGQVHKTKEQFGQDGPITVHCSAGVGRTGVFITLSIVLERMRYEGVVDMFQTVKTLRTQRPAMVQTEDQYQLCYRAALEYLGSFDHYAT

[6] = target: T3, Tyrosine-protein phosphatase non-receptor type 2 (Homo sapiens) (UniProt P17706); test: Inhibition of human GST-tagged TCPTP (41 to 1075 residues) expressed in Escherichia coli at 5 umol/L using pNPP as substrate measured for 4 mins relative to control
T3 sequence (whole entry): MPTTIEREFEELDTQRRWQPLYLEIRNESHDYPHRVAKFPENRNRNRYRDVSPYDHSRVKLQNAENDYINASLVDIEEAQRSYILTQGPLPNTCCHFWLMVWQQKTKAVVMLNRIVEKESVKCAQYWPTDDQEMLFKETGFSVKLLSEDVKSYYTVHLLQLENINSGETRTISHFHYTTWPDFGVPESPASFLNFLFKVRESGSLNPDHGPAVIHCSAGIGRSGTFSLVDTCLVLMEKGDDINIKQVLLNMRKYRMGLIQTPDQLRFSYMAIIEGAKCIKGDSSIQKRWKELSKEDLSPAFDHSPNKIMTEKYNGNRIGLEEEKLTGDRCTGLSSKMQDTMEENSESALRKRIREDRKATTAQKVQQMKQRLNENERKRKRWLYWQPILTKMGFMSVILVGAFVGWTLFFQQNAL

[7] = target: T4, Tyrosine-protein phosphatase non-receptor type 11 (Homo sapiens) (UniProt Q06124); test: Inhibition of human GST-tagged SHP2 (1116 to 2162 residues) at 10 umol/L using OMFP as substrate measured for 4 mins relative to control
T4 sequence (whole entry): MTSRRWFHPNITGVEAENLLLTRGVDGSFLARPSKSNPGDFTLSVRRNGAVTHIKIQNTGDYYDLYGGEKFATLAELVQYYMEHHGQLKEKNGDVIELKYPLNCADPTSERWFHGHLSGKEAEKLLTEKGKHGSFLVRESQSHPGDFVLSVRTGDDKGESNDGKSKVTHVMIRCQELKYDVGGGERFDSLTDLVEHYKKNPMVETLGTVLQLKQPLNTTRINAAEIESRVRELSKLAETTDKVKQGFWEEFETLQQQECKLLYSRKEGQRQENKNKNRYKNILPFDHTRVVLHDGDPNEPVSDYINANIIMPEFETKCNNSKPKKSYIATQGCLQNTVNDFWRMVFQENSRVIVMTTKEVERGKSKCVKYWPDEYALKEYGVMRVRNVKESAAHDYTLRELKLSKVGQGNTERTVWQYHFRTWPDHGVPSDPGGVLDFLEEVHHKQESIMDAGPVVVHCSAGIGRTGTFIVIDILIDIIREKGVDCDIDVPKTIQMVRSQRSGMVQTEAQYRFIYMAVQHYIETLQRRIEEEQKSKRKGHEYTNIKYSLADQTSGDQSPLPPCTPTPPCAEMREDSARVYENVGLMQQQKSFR

[8] = target: T4, Tyrosine-protein phosphatase non-receptor type 11 (Homo sapiens); test: Inhibition of human GST-tagged SHP2 (1116 to 2162 residues) at 5 umol/L using OMFP as substrate measured for 4 mins relative to control
[9] = target: Tyrosine-protein phosphatase non-receptor type 6 (Homo sapiens) (UniProt P29350); test: Inhibition of SHP1 (unknown origin) at 1 umol/L using OMFP as substrate measured for 4 mins relative to control
Chain of Tyrosine-protein phosphatase non-receptor type 6 (Homo sapiens) (P29350 whole entry, the tested form may be a part): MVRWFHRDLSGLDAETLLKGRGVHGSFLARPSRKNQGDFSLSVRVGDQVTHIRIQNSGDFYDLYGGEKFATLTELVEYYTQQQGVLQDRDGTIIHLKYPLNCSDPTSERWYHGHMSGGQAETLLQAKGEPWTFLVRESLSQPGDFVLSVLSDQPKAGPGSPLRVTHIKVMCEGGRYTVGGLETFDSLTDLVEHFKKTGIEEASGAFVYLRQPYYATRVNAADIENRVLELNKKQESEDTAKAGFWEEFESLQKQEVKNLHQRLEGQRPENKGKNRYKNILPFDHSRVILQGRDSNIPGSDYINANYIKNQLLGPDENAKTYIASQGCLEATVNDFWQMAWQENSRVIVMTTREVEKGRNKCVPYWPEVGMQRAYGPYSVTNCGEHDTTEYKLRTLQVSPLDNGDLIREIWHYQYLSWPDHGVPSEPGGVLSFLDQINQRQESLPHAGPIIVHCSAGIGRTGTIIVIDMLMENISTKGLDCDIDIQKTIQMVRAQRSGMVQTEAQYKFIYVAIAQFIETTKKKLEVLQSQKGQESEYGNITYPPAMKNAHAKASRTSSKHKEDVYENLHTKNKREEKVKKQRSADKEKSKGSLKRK

[10] = target: T4, Tyrosine-protein phosphatase non-receptor type 11 (Homo sapiens); test: Inhibition of human GST-tagged SHP2 (1116 to 2162 residues) at 20 umol/L using OMFP as substrate measured for 4 mins relative to control
[11] = target: T3, Tyrosine-protein phosphatase non-receptor type 2 (Homo sapiens); test: Inhibition of human GST-tagged TCPTP (41 to 1075 residues) expressed in Escherichia coli at 1 umol/L using pNPP as substrate measured for 4 mins relative to control
[12] = target: T2, Tyrosine-protein phosphatase non-receptor type 1 (Homo sapiens); test: Binding affinity to recombinant human N-terminal poly histidine-tagged PTP1B (Glu2 to Asn321 residues) expressed in Escherichia coli assessed as association rate constant by surface plasmon resonance analysis
[13] = target: T2, Tyrosine-protein phosphatase non-receptor type 1 (Homo sapiens); test: Binding affinity to recombinant human N-terminal poly histidine-tagged PTP1B (Glu2 to Asn321 residues) expressed in Escherichia coli assessed as dissociation rate constant by surface plasmon resonance analysis
[14] = target: T2, Tyrosine-protein phosphatase non-receptor type 1 (Homo sapiens); test: Inhibition of recombinant human N-terminal poly histidine-tagged PTP1B (Glu2 to Asn321 residues) expressed in Escherichia coli at 40 umol/L using pNPP as substrate measured for 4 mins relative to control
HepG2 [15] = test: Inhibition of PTP1B expression in palmitic acid-induced insulin resistant human HepG2 cells at 0.1 to 10 uM by western blot analysis; type: functional, cell-based
[16] = target: T2, Tyrosine-protein phosphatase non-receptor type 1 (Homo sapiens); test: Inhibition of recombinant human N-terminal poly histidine-tagged PTP1B (Glu2 to Asn321 residues) expressed in Escherichia coli at 1 umol/L using pNPP as substrate measured for 4 mins relative to control
[17] = target: T2, Tyrosine-protein phosphatase non-receptor type 1 (Homo sapiens); test: Inhibition of recombinant human N-terminal poly histidine-tagged PTP1B (Glu2 to Asn321 residues) expressed in Escherichia coli at 10 umol/L using pNPP as substrate measured for 4 mins relative to control
[18] = target: T2, Tyrosine-protein phosphatase non-receptor type 1 (Homo sapiens); test: Inhibition of recombinant human N-terminal poly histidine-tagged PTP1B (Glu2 to Asn321 residues) expressed in Escherichia coli at 2.5 umol/L using pNPP as substrate measured for 4 mins relative to control
[19] = target: Receptor-type tyrosine-protein phosphatase F (Homo sapiens) (UniProt P10586); test: Inhibition of LAR (unknown origin) at 2.5 umol/L using OMFP as substrate measured for 4 mins relative to control
[20] = target: Tyrosine-protein phosphatase non-receptor type 6 (Homo sapiens) (UniProt P29350); test: Inhibition of SHP1 (unknown origin) at 10 umol/L using OMFP as substrate measured for 4 mins relative to control
[21] = target: T4, Tyrosine-protein phosphatase non-receptor type 11 (Homo sapiens); test: Inhibition of human GST-tagged SHP2 (1116 to 2162 residues) at 2.5 umol/L using OMFP as substrate measured for 4 mins relative to control
[22] = target: T3, Tyrosine-protein phosphatase non-receptor type 2 (Homo sapiens); test: Inhibition of human GST-tagged TCPTP (41 to 1075 residues) expressed in Escherichia coli at 10 umol/L using pNPP as substrate measured for 4 mins relative to control
[23] = target: Tyrosine-protein phosphatase non-receptor type 6 (Homo sapiens) (UniProt P29350); test: Inhibition of SHP1 (unknown origin) at 0.5 umol/L using OMFP as substrate measured for 4 mins relative to control
[24] = target: T4, Tyrosine-protein phosphatase non-receptor type 11 (Homo sapiens); test: Inhibition of human GST-tagged SHP2 (1116 to 2162 residues) at 0.5 umol/L using OMFP as substrate measured for 4 mins relative to control
[25] = target: Receptor-type tyrosine-protein phosphatase F (Homo sapiens) (UniProt P10586); test: Inhibition of LAR (unknown origin) at 10 umol/L using OMFP as substrate measured for 4 mins relative to control
[26] = target: Receptor-type tyrosine-protein phosphatase F (Homo sapiens) (UniProt P10586); test: Inhibition of LAR (unknown origin) at 5 umol/L using OMFP as substrate measured for 4 mins relative to control
[27] = target: T1, Tyrosine-protein phosphatase non-receptor type 1; test: Binding affinity to recombinant human N-terminal poly histidine-tagged PTP1B (Glu2 to Asn321 residues) expressed in Escherichia coli by surface plasmon resonance analysis
[28] = target: Receptor-type tyrosine-protein phosphatase F (Homo sapiens) (UniProt P10586); test: Inhibition of LAR (unknown origin) at 1 umol/L using OMFP as substrate measured for 4 mins relative to control
[29] = target: Tyrosine-protein phosphatase non-receptor type 6 (Homo sapiens) (UniProt P29350); test: Inhibition of SHP1 (unknown origin) at 5 umol/L using OMFP as substrate measured for 4 mins relative to control
[30] = target: T2, Tyrosine-protein phosphatase non-receptor type 1 (Homo sapiens); test: Inhibition of recombinant human N-terminal poly histidine-tagged PTP1B (Glu2 to Asn321 residues) expressed in Escherichia coli at 5 umol/L using pNPP as substrate measured for 4 mins relative to control
[31] = target: T3, Tyrosine-protein phosphatase non-receptor type 2 (Homo sapiens); test: Inhibition of human GST-tagged TCPTP (41 to 1075 residues) expressed in Escherichia coli at 20 umol/L using pNPP as substrate measured for 4 mins relative to control
HepG2 [32] = test: Induction of insulin-stimulated 2-NBDG uptake in palmitic acid-induced insulin resistant human HepG2 cells at 1 to 10 umol/L preincubated for 24 hrs followed by insulin stimulation and measured after 30 mins by fluorescence assay; type: functional, cell-based
[33] = target: T3, Tyrosine-protein phosphatase non-receptor type 2 (Homo sapiens); test: Inhibition of human GST-tagged TCPTP (41 to 1075 residues) expressed in Escherichia coli at 2.5 umol/L using pNPP as substrate measured for 4 mins relative to control
[34] = target: T2, Tyrosine-protein phosphatase non-receptor type 1 (Homo sapiens); test: Inhibition of recombinant human N-terminal poly histidine-tagged PTP1B (Glu2 to Asn321 residues) expressed in Escherichia coli at 0.5 umol/L using pNPP as substrate measured for 4 mins relative to control
[35] = target: Tyrosine-protein phosphatase non-receptor type 6 (Homo sapiens) (UniProt P29350); test: Inhibition of SHP1 (unknown origin) at 20 umol/L using OMFP as substrate measured for 4 mins relative to control
[36] = target: Tyrosine-protein phosphatase non-receptor type 6 (Homo sapiens) (UniProt P29350); test: Inhibition of SHP1 (unknown origin) at 2.5 umol/L using OMFP as substrate measured for 4 mins relative to control
[37] = target: T3, Tyrosine-protein phosphatase non-receptor type 2 (Homo sapiens); test: Inhibition of human GST-tagged TCPTP (41 to 1075 residues) expressed in Escherichia coli at 0.5 umol/L using pNPP as substrate measured for 4 mins relative to control
[38] = target: Receptor-type tyrosine-protein phosphatase F (Homo sapiens) (UniProt P10586); test: Inhibition of LAR (unknown origin) at 20 umol/L using OMFP as substrate measured for 4 mins relative to control
[39] = target: T4, Tyrosine-protein phosphatase non-receptor type 11 (Homo sapiens); test: Inhibition of human GST-tagged SHP2 (1116 to 2162 residues) at 1 umol/L using OMFP as substrate measured for 4 mins relative to control

SMILES: CN(CCOc1ccc(CC2SC(=O)NC2=O)cc1)c1ccccn1 (centres undefined)
Activity (HepG2 [1]): Active

IC50 [2]: 1200 nM
inhibition [4]: 93.7%
inhibition [5]: 2.02%
inhibition [6]: 8.63%
inhibition [7]: 2.77%
inhibition [8]: 2.83%
inhibition [9]: 1.36%
inhibition [10]: 10.6%
inhibition [11]: 6.22%
Ka [12]: 2.17 ×10⁴ /Ms
Kdiss [13]: 1.82 ×10⁻⁴ /s
inhibition [14]: 98%
inhibition [16]: 47.2%
inhibition [17]: 92%
inhibition [18]: 80.6%
inhibition [19]: 2.33%
inhibition [20]: 3.89%
inhibition [21]: 3.52%
inhibition [22]: 12.2%
inhibition [23]: 2.03%
inhibition [24]: 0.96%
inhibition [25]: 3.36%
inhibition [26]: 1.52%
Kd [27]: 8.38 nM
inhibition [28]: 3.88%
inhibition [29]: 2.22%
inhibition [30]: 89.3%
inhibition [31]: 35.2%
inhibition [33]: 8.22%
inhibition [34]: 8.68%
inhibition [35]: 9.22%
inhibition [36]: 2.88%
inhibition [37]: 5.25%
inhibition [38]: 1.73%
inhibition [39]: 2.02%
SMILES: CCCCCCCCCCCCCCCC(=O)N[C@H](C(=O)N[C@@H](C)C(=O)N[C@@H](CCC(N)=O)C(=O)N[C@@H](CCC(=O)O)C(=O)N[C@@H](CC(C)C)C(=O)N[C@@H](CCCNC(=N)N)C(=O)N[C@@H](CCCNC(=N)N)C(=O)N[C@H](C(=O)NCC(=O)N[C@@H](CC(=O)O)C(=O)N[C@@H](CCC(=O)O)C(=O)N[C@@H](Cc1ccccc1)C(N)=O)[C@@H](C)CC)[C@@H](C)CC (HELM PEPTIDE1{[CCCCCCCCCCCCCCCC(=O)[*:2]].I.A.Q.E.L.R.R.I.G.D.E.F.[am]}$$$$V2.0)
Activity (HepG2 [3]): Non-Toxic
inhibition (HepG2 [15]): Active
Activity (HepG2 [32]): Active
